Source: paper PMC12488629, “Insecticidal activity of monoamide compounds from Humulus scandens against Spodoptera frugiperda” (Frontiers in Plant Science, 2025)
≈ marks a conversion by molar mass, not a printed value.

Key:
[1] = tested on: 4th instar S. frugiperda larva; assay: Dietary toxicity of compounds, artificial feed film method; format: in vivo, Spodoptera frugiperda; conditions: for Insecticidal activity, dietary poisoning (in words): 200 µg/mL; for LC50: Spodoptera frugiperda, feed or water, Gastrotoxic activity (dietary toxicity), 72 hours, 4th instar larvae
Method: The dietary toxicity of the compounds against S. frugiperda was determined via the artificial feed film method ([Lu, 2022]). Take 1g of artificial feed and place it in a petri dish, then add 0.1 ml of the liquid medicine (acetone as the solvent and concentration of 200 μg/mL for all compounds) was added to form a uniform film on the surface of the feed. After allowing the feed to dry in a shaded area, one uniformly sized 4th instar S. frugiperda larva was introduced into each dish. Each treatment included 10 Petri dishes, and the experiment was repeated twice. Acetone was used as the solvent control, and a blank control was also used. Mortality was recorded at 24, 48, and 72 hours, and the corrected mortality rate was calculated.
(§1) Mortality(%)=(Mortality of treatment group-Mortality of control group)/(1-Mortality of control group)×100%
The compound concentrations used were 50, 100, 200, 400, and 800 μg/mL. The remaining procedures were the same as those described in section 2.6.1. After 72 hours, the number of dead insects was recorded. The experimental data were processed using Microsoft Excel and SPSS 20.0 software, with the inhibition rates converted into corresponding probability values. A toxicity regression equation was derived, and the LC50 value was calculated.

[2] = tested on: 4th instar S. frugiperda larvae; assay: Contact toxicity of compounds, immersion method; format: in vivo, Spodoptera frugiperda; conditions: for Insecticidal activity, contact toxicity (in words): 200 µg/mL; for LC50: Spodoptera frugiperda, Poisoning activity (contact toxicity, immersion), 72 hours, 4th instar larvae
Method: The contact toxicity of the compounds against S. frugiperda was determined via the immersion method ([Li et al., 2023]). The compounds were prepared in solutions with a concentration of 200 μg/mL using acetone as the solvent. Uniformly sized 4th instar S. frugiperda larvae were selected and immersed in the solutions for 3–4 seconds. Each treatment included 10 Petri dishes, with one larva per dish, and the experiment was repeated three times. Acetone was used as the solvent control, and a blank control was also used. The number of dead insects was recorded at 24, 48, and 72 hours, and the corrected mortality rate was calculated.
as §1
The compound concentrations were prepared as 50, 100, 200, 400, and 800 μg/mL, with the remaining procedures following those in section 2.6.2. The number of dead insects was recorded after 72 hours. The experimental data was processed using Microsoft Excel and SPSS 20.0 software, converting the inhibition rates into corresponding probability values to obtain the toxicity regression equation and calculate the LC50 value.

[3] = biological target: AchE from S. frugiperda (Spodoptera frugiperda, UniProt A0A9R0CUI4); assay: Kinetic study of compound inhibition on AchE; format: biochemical; conditions: for Inhibition type on AchE: Lineweaver-Burk double reciprocal plots; for Reversibility of AchE inhibition: reaction rate vs enzyme concentration
AchE from S. frugiperda, sequence (A0A9R0CUI4 18-694): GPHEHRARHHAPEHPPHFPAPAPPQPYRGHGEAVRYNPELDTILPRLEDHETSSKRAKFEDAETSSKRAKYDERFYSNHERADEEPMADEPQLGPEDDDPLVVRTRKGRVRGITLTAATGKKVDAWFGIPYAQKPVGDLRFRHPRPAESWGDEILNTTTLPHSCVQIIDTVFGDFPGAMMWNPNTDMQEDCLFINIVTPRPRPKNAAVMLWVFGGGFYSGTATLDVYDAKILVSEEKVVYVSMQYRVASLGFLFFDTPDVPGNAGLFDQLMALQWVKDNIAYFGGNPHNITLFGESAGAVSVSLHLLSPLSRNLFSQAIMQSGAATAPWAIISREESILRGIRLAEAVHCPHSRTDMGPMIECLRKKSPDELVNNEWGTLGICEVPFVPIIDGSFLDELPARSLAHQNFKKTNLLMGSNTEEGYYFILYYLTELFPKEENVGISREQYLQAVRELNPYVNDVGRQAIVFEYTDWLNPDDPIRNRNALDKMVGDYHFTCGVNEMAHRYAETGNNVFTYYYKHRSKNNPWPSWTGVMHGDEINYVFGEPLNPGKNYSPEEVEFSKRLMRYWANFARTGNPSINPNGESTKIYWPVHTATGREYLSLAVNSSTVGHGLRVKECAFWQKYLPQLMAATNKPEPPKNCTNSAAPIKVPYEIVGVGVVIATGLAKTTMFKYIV
Method: Subsequently, 1.5 mM acetylcholine (ACh) (50 µL) and 0.3 mM DTNB (50 µL) were added, and the time was immediately recorded. The OD values were accurately measured after 60 seconds at 412 nm using a microplate reader, and the reaction rate (ΔA/min) was calculated based on the change in OD value per minute.
The OD values were accurately measured after 60 seconds at 412 nm using a microplate reader, and the reaction rate (ΔA/min) was calculated based on the change in OD value per minute. […] The inhibition constant (Ki) of the compound was calculated by plotting the Dixon plot.

[4] = tested on: Acetylcholinesterase (AchE); assay: AchE activity in living S. frugiperda after immersion treatment; format: in vivo, Spodoptera frugiperda; conditions: treatment at LC50 and double the LC50, immersion
Method: The compounds were prepared in solutions at the LC50 and double the LC50, and 4th-instar S. frugiperda larvae were treated using the immersion method. Ten larvae were treated per concentration, with five replicates, and acetone was used as the solvent control. The Acetylcholinesterase (AchE) activity was measured following the operating procedures of the AchE assay kit (Shenggong Biotech Co., Shanghai, China.).

Row | SMILES | Insecticidal activity, dietary poisoning (in words) [1] | LC50 [1] | Insecticidal activity, contact toxicity (in words) [2] | LC50 [2] | Inhibition type on AchE [3] | Reversibility of AchE inhibition [3] | AchE activity of the test insects [4]
1 | O=C(/C=C/c1ccc(O)cc1)NCCc1ccc(O)cc1 [Compound 1, N-p-coumaroyl tyramine] | good insecticidal activity | 305 µg/mL (≈ 1080 µM) | good insecticidal activity | 93 µg/mL (≈ 328 µM) | competitive inhibitors | reversible inhibitors | significantly decreased
2 | COc1cc(/C=C/C(=O)NCCc2ccc(O)cc2)ccc1O [Compound 2, N-trans-feruloyl tyramine] | good insecticidal activity | 89.9 µg/mL (≈ 287 µM) | good insecticidal activity | 48 µg/mL (≈ 153 µM) | competitive inhibitors | reversible inhibitors | significantly decreased
